Assay [1] deals with T1, C-C chemokine receptor type 2 (Homo sapiens, UniProt P41597). Nature of the assay: Displacement of [125I]MCP1 from CCR2 in human PBMCs.
Target sequence in this assay (P41597 whole entry): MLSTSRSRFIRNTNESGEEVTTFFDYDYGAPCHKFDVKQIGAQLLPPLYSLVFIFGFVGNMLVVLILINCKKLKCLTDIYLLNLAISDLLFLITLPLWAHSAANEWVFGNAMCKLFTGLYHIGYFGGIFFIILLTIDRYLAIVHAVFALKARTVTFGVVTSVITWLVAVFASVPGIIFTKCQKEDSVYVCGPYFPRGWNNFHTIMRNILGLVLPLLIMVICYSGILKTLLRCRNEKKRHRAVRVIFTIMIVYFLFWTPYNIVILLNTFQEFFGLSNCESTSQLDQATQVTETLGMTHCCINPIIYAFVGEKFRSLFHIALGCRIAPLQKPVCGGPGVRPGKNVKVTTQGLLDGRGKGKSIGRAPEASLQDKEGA
In assay [2] the target is T1, C-C chemokine receptor type 2. Kind of assay: Antagonist activity at CCR2 in human monocytes assessed as inhibition of MCP1-induced calcium influx by FLIPR. Format: functional, cell-based.
Target sequence in this assay (P41597 whole entry): as above
Assay [3] has the same target. Nature of the assay: Displacement of [125I]MCP1 from CCR2 in human PBMCs at 1 uM.
Target sequence in this assay (P41597 whole entry, looked up): as the sequence (P41597 whole entry) above
Assay [4] can be described thus: Antagonist activity at CCR2 in human PBMCs assessed as inhibition of MCP1-induced chemotaxis.

Compound `CSc1ccc(C(=O)NC2CCC(NC(=O)OCc3ccccc3)CC2NC(=O)CNC(=O)c2cc(C(F)(F)F)ccc2NC(=O)OC(C)(C)C)cc1` (racemic) displayed an IC50 in assay [1] of 600 nM. `CNC(=O)NC1CCC(NC(=O)c2ccc(SC)cc2)C(NC(=O)CNC(=O)c2cc(C(F)(F)F)ccc2N)C1` (racemic) displayed an IC50 in assay [1] of 112 nM. With `CN(C)C1CCC(NC(=O)CNC(=O)c2cccc(C(F)(F)F)c2)C(NCc2ccc(Cl)cc2)C1` (racemic), the half-maximal inhibitory concentration (IC50) in assay [2] is 7 nM; in assay [1], 16 nM. `CN(C)C1CCC(NC(=O)CNC(=O)c2cccc(C(F)(F)F)c2)C(NCc2ccc(Cl)c(Cl)c2)C1` (racemic) displayed an IC50 in assay [1] of 61.5 nM. `CSc1ccc(C(=O)NC2CCC(N)CC2NC(=O)CNC(=O)c2cc(C(F)(F)F)ccc2N)cc1` (racemic): the Activity in assay [3] turned out to be 28.1%. In addition, the IC50 in assay [1] stood at 167 nM.

In the case of `CSc1ccc(C(=O)NC2CCC(NC(C)C)CC2NC(=O)CNC(=O)c2cccc(C(F)(F)F)c2)cc1` (racemic), the half-maximal inhibitory concentration (IC50) in assay [1] worked out at 136 nM.

On to `COc1ccc(CNC2CC(N(C)C)CCC2NC(=O)CNC(=O)c2cccc(C(F)(F)F)c2)cc1` (racemic), for which the IC50 in assay [2] came out at 8 nM; in assay [1], 12.5 nM. The corresponding values for `CN(C)C1CCC(NC(=O)CNC(=O)c2cccc(C(F)(F)F)c2)C(NCc2cccc(C(F)(F)F)c2)C1` (racemic) are 27 nM and 32.5 nM.

In assay [1], `CC(=O)Nc1ccc(CNC2CC(N(C)C)CCC2NC(=O)CNC(=O)c2cccc(C(F)(F)F)c2)cc1` (racemic) had an IC50 of 7.7 nM. Consider `CSc1ccc(C(=O)NC2CC(N)CCC2NC(=O)CNC(=O)c2cc(C(F)(F)F)ccc2N)cc1` (racemic), for which the results for the half-maximal inhibitory concentration (IC50) in assay [2] and in assay [1] were 6 nM and 4.8 nM, respectively.

For `CSc1ccc(CNC2CC(N(C)C)CCC2NC(=O)CNC(=O)c2cccc(C(F)(F)F)c2)cc1` (racemic), the values for the half-maximal inhibitory concentration (IC50) in assay [2] and in assay [1] were 6 nM and 2.4 nM, respectively. For `Cc1ccc(CNC2CC(N(C)C)CCC2NC(=O)CNC(=O)c2cccc(C(F)(F)F)c2)cc1` (racemic) the same measures were 5.5 nM and 9.9 nM. For `CSc1ccc(C(=O)NC2CCNCC2NC(=O)CNC(=O)c2cc(C(F)(F)F)ccc2N)cc1` (racemic), the IC50 in assay [4] was 109 nM. For `CSc1ccc(C(=O)NC2CC(N)CCC2NC(=O)CNC(=O)c2cccc(C(F)(F)F)c2)cc1` (racemic), the IC50 in assay [1] is 228 nM.

In the case of `CSc1ccc(C(=O)NC2CCCCC2NC(=O)CNC(=O)c2cc(C(F)(F)F)ccc2N)cc1` (racemic), the half-inhibitory concentration (IC50) in assay [1] was 155 nM. Regarding `CSc1ccc(C(=O)NC2CCC(NC(=O)OCc3ccccc3)CC2NC(=O)CNC(=O)c2cccc(C(F)(F)F)c2)cc1` (racemic), in assay [3], the Activity came to 0%. This compound came in with a concentration for half-maximal inhibition (IC50) in assay [1] of 1610 nM. For `CSc1ccc(C(=O)NC2CCC(NC(C)C)CC2NC(=O)CNC(=O)c2cc(C(F)(F)F)ccc2N)cc1` (racemic), the IC50 in assay [2] was 2 nM; in assay [1], 3.8 nM. For `CC(C)c1ccc(CNC2CC(N(C)C)CCC2NC(=O)CNC(=O)c2cccc(C(F)(F)F)c2)cc1` (racemic) the same measures were 19 nM and 16.5 nM. For `CN(C)C1CCC(NC(=O)CNC(=O)c2cccc(C(F)(F)F)c2)C(NCc2ccc3[nH]ccc3c2)C1` (racemic) the same measures were 8 nM and 3.1 nM.

`CSc1ccc(C(=O)NC2CC(NC(C)C)CCC2NC(=O)CNC(=O)c2cccc(C(F)(F)F)c2)cc1` (racemic) had an Activity in assay [3] of 31.4%.

Consider `CSc1ccc(C(=O)NC2CCC(N)CC2NC(=O)CNC(=O)c2cccc(C(F)(F)F)c2)cc1` (racemic), for which, in assay [3], the Activity stood at 13%. On the same count and under the same terms, the result for `CSc1ccc(C(=O)NC2CCC(NC(=O)OCc3ccccc3)CC2NC(=O)CNC(=O)c2cc(C(F)(F)F)ccc2N)cc1` (racemic) reads 3.1%. On the same count and under the same terms, the result for `CSc1ccc(C(=O)NC2CC(NC(=O)OCc3ccccc3)CCC2NC(=O)CNC(=O)c2cccc(C(F)(F)F)c2)cc1` (racemic; form 1) reads 14%. On to `CSc1ccc(C(=O)NC2CC(NC(=O)OCc3ccccc3)CCC2NC(=O)CNC(=O)c2cccc(C(F)(F)F)c2)cc1` (racemic; form 2), for which the IC50 in assay [2] stood at 2 nM; in assay [1], 2.4 nM.

The values above are taken from ChEMBL document CHEMBL1143363, “Discovery of trisubstituted cyclohexanes as potent CC chemokine receptor 2 (CCR2) antagonists” (Bioorg Med Chem Lett, 2009).
